Source: patent publication EP0046707B1, “Derivatives of 4-aminobutyric acid and the medicines especially active on the central nervous system containing them” (priority 1980, dated 1982)
Read-outs that look alike come from different tables or passages of the source.

Tests used:
souris [1] = test: Actography (locomotor activity, two perpendicular light beams); type: in vivo; settings: mouse, 500 mg/kg oral; grouping in words
Description: La mesure de l'actographie est effectuée chez la souris 45 min. après l'administration du produit. On opère sur des lots de 12 animaux, chacun d'eux étant isolé pendant 10 min. avant la mesure. Le comptage des scores est effectué par coupure de deux faisceaux lumineux perpendiculaires.
Dans le tableau IV ci-après sont rassemblés les résultats obtenus avec divers produits de l'invention administrés à la dose de 500 mg/kg par voie orale. Les résultats sont exprimés en pourcentage de variation des scores obtenus par rapport à des animaux témoins non traités.
On peut constater que les produits se répartissent en deux groupes : • ceux provoquant de l'hypomotilité tels que 40217, 40039, 40271, 40272, 40319; dans le cas où les animaux traités présentent une perte du réflexe de retournement, ce qui traduit l'effet de narcose propre du produit, on a noté PRR; • ceux provoquant de l'hypermotilité, tels que 40142, 40398, 40397, 40404, 40253, 40355, 40209; pour préciser les résultats obtenus, l'étude pour deux produits a été reprise en effet-dose suivant le même protocole. • Les résultats obtenus figurent dans le tableau V ci-après.

souris [2] = test: Potentiation of pentobarbital narcosis (loss of righting reflex); type: in vivo; settings: mouse; for ED50: po, p. os 1 h before pentobarbital 20 mg/kg i.p., unit not given for DE 50, read-out: dose (p. os) provoquant 50 % d'induction de narcose (DE 50); for Pourcentage d'animaux en narcose à 500 mg/kg p. os: 500 mg/kg p. os 1 h before pentobarbital 20 mg/kg i.p.
Description: Les produits à étudier ont été administrés per os chez la souris à la dose de 500 mg/kg, 1 h avant le pentobarbital injecté par voie intrapéritonéale à raison de 20 mg/kg.
On détermine le pourcentage des animaux ayant perdu le réflexe de retournement. Les résultats sont exprimés en pourcentage ou, dans quelques cas, en dose efficace 50 (DE 50) ou dose provoquant la narcose chez 50 % des animaux traités.
Les résultats figurent dans le tableau VI ci-après.

[3] = Acute toxicity (mortality over 24 h); settings: in vivo, po, mouse, observed 24 h
Description: Les produits à étudier sont administrés par voie orale aux doses de 500 et 1 000 mg/kg à des lots de souris. On observe les souris pendant 24 h et note la mortalité.
Les résultats exprimés en pourcentage de mortalité figurent dans le tableau XI ci-après.

souris [4] = test: Anticonvulsant effect against bicuculline-induced tonic seizures; type: in vivo; settings: 1 h; mouse, bicuculline 1 mg/kg i.v. 60 min after oral dosing; read-out: Dose efficace médiane de protection des crises toniques (DE 50) Bicuculline
Description: (§1) L'effet anticonvulsivant a été déterminé vis-à-vis des crises convulsives provoquées par l'électrochoc ou par la bicuculline.
La bicuculline est administrée à la souris par voie intraveineuse à raison de 1 mg/kg, 60 min après le produit à étudier donné per os. On note l'effet protecteur obtenu vis-à-vis des crises toniques.
(§2) En opérant sur divers lots d'animaux avec des doses différentes du produit à étudier, on peut déterminer la dose efficace médiane (DE 50).
(§3) Les résultats sont rassemblés dans le tableau VIII ci-après et montrent les propriétés anticonvulsivan- tes nettes des produits étudiés.

souris [5] = test: Anticonvulsant effect against electroshock seizures; type: in vivo; settings: 1 h; mouse, electroshock 12.5 V for 0.5 s, 60 min after oral dosing; read-out: Dose efficace médiane de protection des crises toniques (DE 50) Electrochoc
Description: as §1
L'électrochoc (12,5 V pendant 0,5 s) est effectué chez la souris 60 min après l'administration du produit par voie orale.
as §2, §3

[6] = system: acide homovanillique (HVA); test: Effect on central dopaminergic activity (homovanillic acid accumulation in whole brain); type: in vivo, souris; settings: mouse whole brain, 500 mg/kg p.os
Description: L'effet des produits sur l'activité dopaminergique centrale a été étudié par la mesure de l'accumulation de l'acide homovanillique sur une période de 24 h après l'administration des produits chez la souris.
Le taux d'acide homovanillique (HVA) est évalué dans le cerveau entier, les animaux reçoivent une injection de probenecid (200 mg/kg i.p.) 1 h 30 min avant le sacrifice (lot de 10 animaux).

[7] = 500 mg/kg p. os, read-out: p. cent de mortalité à 500 mg/kg p. os
[8] = 1000 mg/kg p. os, read-out: p. cent de mortalité à 1000 mg/kg p. os

Structure (SMILES)	hypomotilité / hypermotilité (souris [1])	mortality at 24 h [3, 7] [%]	mortality at 24 h [3, 8] [%]	Pourcentage d'animaux en narcose à 500 mg/kg p. os (souris [2]) [%]	ED50 (souris [4]) [mg/kg]	further results
CCCNC(=O)CCCNC(=O)CCC [40 398]	hypermotilité	0	0	–	–	ED50 (souris [2]): 350 mg/kg
CCCCNC(=O)CCC(C)NC(=O)CCC (stereo not drawn) [40 397]	hypermotilité	0	20	100	–	–
CCCCNC(=O)C(C)CCNC(=O)CCC (stereo not drawn) [40 404]	hypermotilité	0	0	40	–	–
CCCNC(=O)CCCNC(=O)CC(C)C [40 418]	–	0	0	–	300	–
CCCCNC(=O)CCCNC(=O)C(C)C [40 467]	–	0	0	–	150	ED50 (souris [5]): < 500 mg/kg
CCCCNC(=O)CCCNC(=O)C1CC1 [40 443]	–	0	0	40	–	–
CCCC(=O)NCCCC(=O)N(C(C)CC)C(C)CC (stereo not drawn) [40 216]	–	0	100	100	–	–
CCCCNC(=O)CC(C)NC(=O)CCC (stereo not drawn) [40 395]	–	0	20	70	–	–
CCCCN(CCCC)C(=O)CCNC(=O)C(C)(C)C [40 319]	hypomotilité	0	0	–	–	ED50 (souris [2]): 175 mg/kg
CCCC(=O)NCCCC(=O)NCc1ccccc1 [40 316]	–	0	0	70	–	–
CCCCCNC(=O)CCCNC(=O)CCC [40 521]	–	–	–	–	250	ED50 (souris [5]): 180 mg/kg
CCCCCCNC(=O)CCCNC(=O)CCC [40 947]	–	0	0	–	250	ED50 (souris [5]): 400 mg/kg
CCCC(=O)NCCCC(=O)NC(C)(C)CC [40 989]	–	0	80	50	–	–
CCCCN(CCCC)C(=O)CCCNC(=O)C(C)C [40 462]	–	0	0	30	150	ED50 (souris [5]): 500 mg/kg
CCCC(=O)NCCCC(=O)NCC [40 463]	–	0	0	–	380	–
CCCC(=O)NCCCC(=O)N1CCOCC1 [40 206]	–	0	0	0	–	–
CCCCNC(=O)CCCNC(=O)C(C)(C)C [40 254]	–	0	20	50	< 500	–
CCCC(=O)NCCCC(=O)NC(C)C [40 466]	–	0	0	30	–	–
CCCCN(CCCC)C(=O)CCCNC(=O)C(C)(C)C [40 272]	hypomotilité	0	0	72	–	–
CCCC(=O)NCCCC(=O)N(CCC)CCC [40 217]	hypomotilité	0	0	0	–	–
CCCCNC(=O)CCNC(=O)CCC [40 253]	hypermotilité	0	0	50	< 500	ED50 (souris [5]): 500 mg/kg
CCCCNC(=O)CCNC(=O)C(C)(C)C [40 318]	–	–	–	90	–	–
CCCCCN(CCCCC)C(=O)CCCNC(=O)CCC [40 984]	–	0	100	60	–	–
CCCCN(CCCC)C(=O)CCNC(=O)CCC [40 271]	hypomotilité	0	100	100	< 500	ED50 (souris [5]): 500 mg/kg
CCCCNC(=O)CCCNC(=O)CC(C)C [40 417]	–	0	20	–	–	–
CCCC(=O)NCCCC(=O)NC1CCCC1 [40 209]	hypermotilité	0	20	–	–	–
CCCCNC(=O)CCCNC(=O)CCC [40 142]	hypermotilité	0	0	–	325	Taux de HVA en ([6]; 2 h): 379 ± 11 ng/g; Taux de HVA en ([6]; 4 h): 793 ± 52 ng/g; Taux de HVA en ([6]; 6 h): 571 ± 23 ng/g; Taux de HVA en ([6]; 24 h): 290 ± 16 ng/g; Taux de HVA en ([6]; time 0 (baseline)): 521 ± 29 ng/g; ED50 (souris [2]): 297 mg/kg; ED50 (souris [5]): 150 mg/kg
CCCC(=O)NCCCC(N)=O [40 401, Dioxo-2,7 diaza-1,6 décane]	–	0	0	0	–	–
